What is called IC50 is the concentration that gives 50% inhibition.

The structures appear in SMILES notation.

The target in the first assay is T1, estrogen receptor (Homo sapiens, UniProt P03372).
T1 sequence (P03372 1-595): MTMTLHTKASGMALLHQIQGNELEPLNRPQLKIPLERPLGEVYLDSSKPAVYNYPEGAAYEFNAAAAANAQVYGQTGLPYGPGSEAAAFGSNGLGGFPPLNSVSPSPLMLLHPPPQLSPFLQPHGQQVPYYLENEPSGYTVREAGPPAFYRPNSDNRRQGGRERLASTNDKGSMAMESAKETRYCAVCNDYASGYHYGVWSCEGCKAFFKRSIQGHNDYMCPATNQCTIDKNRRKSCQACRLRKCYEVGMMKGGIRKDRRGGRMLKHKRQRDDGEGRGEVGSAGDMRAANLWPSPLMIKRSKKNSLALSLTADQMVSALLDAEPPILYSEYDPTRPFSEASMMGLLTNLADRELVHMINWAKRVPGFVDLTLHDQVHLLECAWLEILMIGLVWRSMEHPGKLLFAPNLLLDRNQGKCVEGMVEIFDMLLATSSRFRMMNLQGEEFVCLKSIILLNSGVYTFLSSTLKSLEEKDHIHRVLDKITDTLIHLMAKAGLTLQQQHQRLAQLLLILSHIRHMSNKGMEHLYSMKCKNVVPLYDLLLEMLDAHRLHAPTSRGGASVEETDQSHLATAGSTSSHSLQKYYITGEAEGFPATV
Nature of the assay: Western blot, estrogen receptor downregulation in T47D:neo cells. Type of assay: cell-based. Details: Whole-cell extracts of cultured cells were prepared in lysis buffer; endogenous in cells; host or cells: T47D:neo. The note with it: 24 hours, 1 nM to 1 uM. The protocol: (§1) Whole-cell extracts of cultured cells were prepared in lysis buffer (200 mmol/L Tris, 1% Triton X-100, 5 mmol/L EDTA) with protease and phosphatase inhibitor cocktails (1:50, both from Sigma-Aldrich) after scraping from the culture plates. Protein concentration was measured using the Bradford method (Bio-Rad). Proteins were separated under denaturing conditions and blotted onto nitrocellulose membrane (Bio-Rad) using a wet transfer system (Bio-Rad). Images of blots were acquired on a Bio-Rad ChemiDoc System following incubation with SuperSignal West Dura luminol solution (Thermo Fisher Scientific).
(§2) Fulvestrant at 1 uM concentration was assayed as a positive control.
In the case of `O=C(O)/C=C/c1ccc(-c2c(C(=O)c3ccc(O)cc3)sc3cc(O)ccc23)cc1` [Compound 1, (E)-3-(4-(6-hydroxy-2-(4-hydroxybenzoyl)benzo[b]thiophen-3-yl)phenyl)acrylic acid], the “estrogen receptor downregulation (western blot)” value is reported as “estrogen receptor downregulation”.

The next assay has as its system MCF7:5C (Tamoxifen Resistant) cells. Nature of the assay: Cell viability of MCF7:5C (tamoxifen resistant), DNA content growth inhibition. The format is cell-based. The note with it: 144 h, Table 1, data normalized to 1 uM fulvestrant, day 6, read-out: MCF-5C growth inhibition IC50. Here is the method: Assays Cell Viability of MCF7:5C (Tamoxifen Resistant)
The DNA content of the cells was determined as previously described using a Fluorescent DNA Quantitation kit (cat. No. 170-2480; Bio-Rad Laboratories, Hercules, Calif.). Briefly, five thousand cells were plated per well in 96-well plates, and treatment with indicated concentrations of compounds was started at the same time in each well. On day 6, the cells in the plates were lysed and frozen at −80° C. To measure the total DNA in each well, the plates were allowed to warm to room temperature, incubated with Hoechst dye, and mixed well. The fluorescence was measured using a Synergy H4 Hybrid Multi-Mode Microplate Reader. For each analysis, six replicate wells were used and at least three independent experiments were performed.
FIG. 1 is a graph of the efficacy of Compound 1 against tamoxifen-resistant MCF-7:5 cells normalized to 1 uM fulvestrant. The y-axis is cell survival as a percent of the control and the x-axis is the concentration of the compound measured in nanomolar units.
For `Cc1ccc(F)cc1C(=O)c1sc2cc(O)ccc2c1-c1ccc(/C=C/C(=O)O)cc1` [Compound 7, (E)-3-(4-(2-(5-fluoro-2-methylbenzoyl)-6-hydroxybenzo[b]thiophen-3-yl)phenyl)acrylic acid], the half-inhibitory concentration (IC50) was greater than 200 nM. On the same count and under the same terms, the figure for `O=C(O)/C=C/c1ccc(-c2c(C(=O)c3ccc(O)cc3)sc3cc(O)ccc23)cc1` [Compound 1, (E)-3-(4-(6-hydroxy-2-(4-hydroxybenzoyl)benzo[b]thiophen-3-yl)phenyl)acrylic acid] is less than 100 nM. As for `O=C(O)/C=C/c1ccc(-c2c(C(=O)c3ccccc3Cl)sc3cc(O)ccc23)cc1` [Compound 4, (E)-3-(4-(2-(2-chlorobenzoyl)-6-hydroxybenzo[b]thiophen-3-yl)phenyl)acrylic acid], the IC50 was greater than 200 nM. For `Cc1cc(F)ccc1C(=O)c1sc2cc(O)ccc2c1-c1ccc(/C=C/C(=O)O)cc1` [Compound 9, (E)-3-(4-(2-(4-fluoro-2-methylbenzoyl)-6-hydroxybenzo[b]thiophen-3-yl)phenyl)acrylic acid], the IC50 was greater than 200 nM. As to `Cc1cccc(C)c1C(=O)c1sc2cc(O)ccc2c1-c1ccc(/C=C/C(=O)O)cc1` [Compound 10, (E)-3-(4-(2-(2,6-dimethylbenzoyl)-6-hydroxybenzo[b]thiophen-3-yl)phenyl)acrylic acid], the IC50 is greater than 200 nM. Still for that read-out and setting: the figure for `O=C(O)/C=C/c1ccc(-c2c(C(=O)c3ccccc3F)sc3cc(O)ccc23)cc1` [Compound 3, (E)-3-(4-(2-(2-fluorobenzoyl)-6-hydroxybenzo[b]thiophen-3-yl)phenyl)acrylic acid] is greater than 200 nM; for `Cc1cc(C)cc(C(=O)c2sc3cc(O)ccc3c2-c2ccc(/C=C/C(=O)O)cc2)c1` [Compound 11, (E)-3-(4-(2-(3,5-dimethylbenzoyl)-6-hydroxybenzo[b]thiophen-3-yl)phenyl)acrylic acid] it is greater than 200 nM; for `O=C(O)/C=C/Oc1ccc(-c2c(C(=O)c3ccc(O)cc3)sc3cc(O)ccc23)cc1` [Compound 2, (E)-3-(4-(6-hydroxy-2-(4-hydroxybenzoyl)benzo[b]thiophen-3-yl)phenoxy)acrylic acid] it is less than 10 nM.

On to `Cc1ccccc1C(=O)c1sc2cc(O)ccc2c1-c1ccc(/C=C/C(=O)O)cc1` [Compound 6, (E)-3-(4-(6-hydroxy-2-(2-methylbenzoyl)benzo[b]thiophen-3-yl)phenyl)acrylic acid], for which the IC50 was greater than 200 nM. Take `Cc1cc(F)cc(C)c1C(=O)c1sc2cc(O)ccc2c1-c1ccc(/C=C/C(=O)O)cc1` [Compound 8, (E)-3-(4-(2-(4-fluoro-2,6-dimethylbenzoyl)-6-hydroxybenzo[b]thiophen-3-yl)phenyl)acrylic acid]: the IC50 is greater than 200 nM.

Turning to `O=C(O)/C=C/c1ccc(-c2c(C(=O)c3ccccc3C(F)(F)F)sc3cc(O)ccc23)cc1` [Compound 5, (E)-3-(4-(6-hydroxy-2-(2-(trifluoromethyl)benzoyl)benzo[b]thiophen-3-yl)phenyl)acrylic acid], the concentration for half-maximal inhibition (IC50) is greater than 200 nM.

Still in this assay, the particulars now being: 144 h, Table 2, data normalized to 1 uM fulvestrant, day 6, read-out: MCF-5C growth inhibition IC50.
For the compound `O=C(O)/C=C/c1ccc(-c2c(C(=O)C3CCCCC3)sc3cc(O)ccc23)cc1` [Compound 12, (E)-3-(4-(2-(cyclohexanecarbonyl)-6-hydroxybenzo[b]thiophen-3-yl)phenyl)acrylic acid], the IC50 was less than 200 nM. Same read-out and setting: the figure for `Cc1cc(OC(F)(F)F)ccc1C(=O)c1sc2cc(O)ccc2c1-c1ccc(/C=C/C(=O)O)cc1` [Compound 13, (E)-3-(4-(6-hydroxy-2-(2-methyl-4-(trifluoromethoxy)benzoyl)benzo[b]thiophen-3-yl)phenyl)acrylic acid] is greater than 200 nM. `Cc1cc(O)ccc1C(=O)c1sc2cc(O)ccc2c1-c1ccc(/C=C/C(=O)O)cc1` [Compound 14, (E)-3-(4-(6-hydroxy-2-(4-hydroxy-2-methylbenzoyl)benzo[b]thiophen-3-yl)phenyl)acrylic acid]: the IC50 was greater than 200 nM.

For `Cc1cc(O)cc(C)c1C(=O)c1sc2cc(O)ccc2c1-c1ccc(/C=C/C(=O)O)cc1` [Compound 15, (E)-3-(4-(6-hydroxy-2-(4-hydroxy-2,6-dimethylbenzoyl)benzo[b]thiophen-3-yl)phenyl)acrylic acid], the IC50 is greater than 200 nM.

The target in a further assay is T1, estrogen receptor. Nature of the assay: Western blot, estrogen receptor downregulation in MCF-7:5C cells. The note with it: 24 hours, 1 nM to 1 uM. Details: Whole-cell extracts of cultured cells were prepared in lysis buffer; endogenous in cells. Type of assay: cell-based. The protocol: as §1, §2
With `O=C(O)/C=C/c1ccc(-c2c(C(=O)c3ccc(O)cc3)sc3cc(O)ccc23)cc1` [Compound 1, (E)-3-(4-(6-hydroxy-2-(4-hydroxybenzoyl)benzo[b]thiophen-3-yl)phenyl)acrylic acid], the “estrogen receptor downregulation (western blot)” value is on record as “estrogen receptor downregulation”.
